We go through 2 compounds from patent US9556165B2 (priority 2012, dated 2017).

In brackets after ≈: the same amount, converted by molar mass.

Common to all, as to assay type: cell-based
The test system of one assay is H. influenzae ATCC 49247. The assay can be described thus: MIC determination, broth microdilution (CLSI). To be noted: Haemophilus influenzae, ATCC49247, strain 13; read-out: strain 13 MIC. For orientation: Broth dilution looks for growth in wells or tubes with falling amounts of substance.
A further assay concerns M. catarrhalis ICB489. Put plainly: MIC determination, broth microdilution (CLSI). To be noted: Moraxella catarrhalis, ICB489, strain 12.
The next assay relates to C. freundii K21/3034. The assay can be described thus: MIC determination, broth microdilution (CLSI). To be noted: Citrobacter freundii, K21/3034, strain 4.
A further assay has as its system E. cloacae 34654. The assay can be described thus: MIC determination, broth microdilution (CLSI). To be noted: Enterobacter cloacae, 34654, strain 3.
Assay [1] concerns P. aeruginosa 2297 (AmpC wt). The assay can be described thus: MIC determination, broth microdilution (CLSI). To be noted: Pseudomonas aeruginosa, strain 7.
The test system of another assay is E. coli ATCC25922. The assay can be described thus: MIC determination, broth microdilution (CLSI). The settings on record: Escherichia coli, ATCC25922, strain 1.
For the next assay, the system named is C. perfringens DSM756. Put plainly: microbe, parasite or virus in culture. The settings on record: Clostridium perfringens, DSM756, read-out: strain 16 MIC, strain 16.
In the next assay the test system is strain 20. The assay can be described thus: MIC determination, broth microdilution (CLSI).
For a further assay, the system named is B. fragilis 6688. The assay can be described thus: MIC determination, broth microdilution (CLSI). To be noted: Bacteroides fragilis, 6688, strain 15; read-out: strain 15 MIC.
The next assay relates to strain 19. The assay can be described thus: MIC determination, broth microdilution (CLSI).
A further assay deals with S. maltophilia ICB7569. Put plainly: MIC determination, broth microdilution (CLSI). The settings on record: Stenotrophomonas maltophilia, ICB7569, strain 10.
For another assay, the system named is E. coli J62-TEM-3. The assay can be described thus: MIC determination, broth microdilution (CLSI). To be noted: Escherichia coli, J62TEM3, read-out: strain 18 MIC, strain 18.
For the next assay, the system named is A. baumannii ATCC15308. The assay can be described thus: MIC determination, broth microdilution (CLSI). The settings on record: Acinetobacter baumannii, ATCC15308, strain 9.
For the next assay, the system named is S. pneumoniae 113. Put plainly: MIC determination, broth microdilution (CLSI). The settings on record: Streptococcus pneumoniae, 113, strain 14; read-out: strain 14 MIC.
For another assay, the system named is P. aeruginosa PAO1. Put plainly: MIC determination, broth microdilution (CLSI). The settings on record: Pseudomonas aeruginosa, PAO1, strain 6.
A further assay concerns E. coli J62. The assay can be described thus: MIC determination, broth microdilution (CLSI). The settings on record: Escherichia coli, J62, strain 17; read-out: strain 17 MIC.
A further assay has as its system M. morganii 126/3048. Put plainly: MIC determination, broth microdilution (CLSI). To be noted: Morganella morganii, 126/3048, strain 5.
A further assay has as its system strain 21. The assay can be described thus: MIC determination, broth microdilution (CLSI).
The subject of assay [2] is P. aeruginosa 2297-con (AmpC derepressed). Put plainly: MIC determination, broth microdilution (CLSI). To be noted: Pseudomonas aeruginosa, read-out: strain 8 MIC, strain 8.
The subject of another assay is K. pneumoniae 60. The assay can be described thus: MIC determination, broth microdilution (CLSI). To be noted: Klebsiella pneumoniae, 60, strain 2.
A further assay concerns S. aureus 133. Put plainly: MIC determination, broth microdilution (CLSI). The settings on record: Staphylococcus aureus, 133, strain 11; read-out: strain 11 MIC.

As to `CC1(C)[C@H](NC(=O)/C(=N\OCCOc2ccc(C(=N)NCCNC=N)cc2)c2csc(N)n2)C(=O)N1OS(=O)(=O)O` [Example 38], the MIC is ≤ 0.063 µg/mL in the assay with H. influenzae ATCC 49247; ≤ 0.063 µg/mL in the assay on M. catarrhalis ICB489; 0.125 µg/mL (≈ 0.204 µM) with C. freundii K21/3034; 0.25 µg/mL (≈ 0.409 µM) with E. cloacae 34654; 8 µg/mL (≈ 13.1 µM) in assay [1]; 0.125 µg/mL (≈ 0.204 µM) with E. coli ATCC25922. Moreover, the MIC with C. perfringens DSM756 came to 2 µg/mL (≈ 3.27 µM); against strain 20, 0.25 µg/mL (≈ 0.409 µM); in the assay with B. fragilis 6688, 4 µg/mL (≈ 6.54 µM); against strain 19 it was 0.125 µg/mL (≈ 0.204 µM); against S. maltophilia ICB7569, 32 µg/mL (≈ 52.3 µM); in the assay on E. coli J62-TEM-3, 4 µg/mL (≈ 6.54 µM). Moreover, the MIC against A. baumannii ATCC15308 came to 0.25 µg/mL (≈ 0.409 µM); with S. pneumoniae 113, 2 µg/mL (≈ 3.27 µM); against P. aeruginosa PAO1, 4 µg/mL (≈ 6.54 µM); in the assay on E. coli J62, 0.25 µg/mL (≈ 0.409 µM); in the assay on M. morganii 126/3048, 0.5 µg/mL (≈ 0.817 µM); in the assay on strain 21 it was 0.25 µg/mL (≈ 0.409 µM). The values for the MIC (in [2]; against K. pneumoniae 60; in the assay on S. aureus 133) were 4 µg/mL (≈ 6.54 µM), 0.25 µg/mL (≈ 0.409 µM) and ≤ 0.063 µg/mL, respectively.

As for `CC1(C)[C@H](NC(=O)/C(=N\OCCOc2ccc(C(=N)N[C@H]3CCNC3)cc2)c2csc(N)n2)C(=O)N1OS(=O)(=O)O` [Example 39, (2Z)-2-(2-Amino-1,3-thiazol-4-yl)-N-[(3S)-2,2-dimethyl-4-oxo-1-(sulfooxy)azetidin-3-yl]-2-{[2-(4-{N-[(3S)-pyrrolidin-3-yl]carbamimidoyl}phenoxy)ethoxy]imino}ethanamide], the MIC in the assay with H. influenzae ATCC 49247 was determined as 0.25 µg/mL (≈ 0.409 µM); in the assay on M. catarrhalis ICB489, 0.25 µg/mL (≈ 0.409 µM); in the assay on C. freundii K21/3034, 0.25 µg/mL (≈ 0.409 µM); in the assay on E. cloacae 34654 it was 0.5 µg/mL (≈ 0.819 µM); in [1] it was 4 µg/mL (≈ 6.55 µM); in the assay with E. coli ATCC25922, 0.25 µg/mL (≈ 0.409 µM). Moreover, the MIC was 8 µg/mL (≈ 13.1 µM) with C. perfringens DSM756; 0.25 µg/mL (≈ 0.409 µM) with strain 20; 16 µg/mL (≈ 26.2 µM) in the assay with B. fragilis 6688; 0.125 µg/mL (≈ 0.205 µM) against strain 19; 16 µg/mL (≈ 26.2 µM) against S. maltophilia ICB7569; 4 µg/mL (≈ 6.55 µM) with E. coli J62-TEM-3. Further, the MIC against A. baumannii ATCC15308 is 0.5 µg/mL (≈ 0.819 µM); in the assay with S. pneumoniae 113, 2 µg/mL (≈ 3.28 µM); against P. aeruginosa PAO1 it was 2 µg/mL (≈ 3.28 µM); in the assay with E. coli J62, 0.25 µg/mL (≈ 0.409 µM); against M. morganii 126/3048, 0.5 µg/mL (≈ 0.819 µM); in the assay with strain 21, 0.25 µg/mL (≈ 0.409 µM). Further, the MIC in assay [2] was 2 µg/mL (≈ 3.28 µM); in the assay on K. pneumoniae 60 it was 0.5 µg/mL (≈ 0.819 µM); in the assay with S. aureus 133 it was ≤ 0.063 µg/mL.
